According to PMC7311396, “Ultra-large chemical libraries for the discovery of high-affinity peptide binders” (Nature Communications, 2020):
Non-standard residues stand in square brackets, D forms with d. Residues, ends and D or L forms follow the SMILES beside them.

How the values were obtained:
[1] = system: anti-HA mAb clone 12ca5; test: Competition fluorescence polarization of HA epitope and analogues; assay type: binding; details: for IC50: competition FP, 100 nM 12ca5, 28 nM YPYDVPDYAK(FITC)-CONH2, 1 mg/mL BSA, 0.02% Tween 20, 1x PBS, RT, read after 1 h; for Kd: from competition FP, 100 nM 12ca5, 28 nM FITC tracer
Procedure: Competition fluorescence polarization of HA epitope and analogues:
Solutions of unlabeled peptides (~1 mg/mL each; Supplementary Table 1) in 1x PBS was prepared in the presence of 100 nM 12ca5, 1 mg/mL BSA, 0.02% Tween 20 (120 μL). Fluorescent competitor was added (YPYDVPDYAK(FITC)α-CONH2; 28 nM).
The resulting solution was diluted serially (20 μL) into 100 nM 12ca5, 28 nM […]
YPYDVPDYAK(FITC)α-CONH2, 1 mg/mL BSA, 0.02% Tween 20 in 1x PBS (80 μL; […]
5-fold dilutions). The resulting solutions were transferred to a 96 well plate (Greiner Bio- […]
(RT), and read after 1 h on a Tecan Infinite M1000 plate reader (470 nm excitation; 517 nm detection; 5 nm bandwidth). The concentration of fluorescent […] was determined based on absorbance at 490 nm, using ε = 76,900 M-1cm-1.
Competition fluorescence polarization of HA epitope Ala scan mutants:
Competition fluorescence polarization experiments were carried out as described in Competition fluorescence polarization of HA epitope and analogues.

[2] = system: 12ca5; test: Magnetic bead affinity capture of 12ca5-binding peptides, recovery by nLC-MS; design: species or system mouse
Procedure: Identification of binders from high-diversity libraries would necessitate their efficient recovery at high dilution. To assess the utility of magnetic bead-based affinity capture for this purpose, we investigated the recovery of a number of peptide binders with varying affinity for anti-HA mAb clone 12ca5 (12ca5), which recognizes the linear motif DXXDYA (Supplementary Figs. 1–6; Supplementary Table 1). In these experiments, streptavidin-coated magnetic beads (1 mg; 0.13 nmol IgG binding capacity) functionalized with biotinylated 12ca5 were incubated with mixtures of 12ca5-binding peptides (either 1 nM/peptide, 100 pM/peptide, or 10 pM/peptide; 1 mL scale). The magnetic beads were isolated, washed with buffer, and treated with chemical denaturant to elute bound peptides. A portion of this eluate (~2%) was subjected to nLC-MS analysis, and recovery was quantified using normalized MS response. To calculate recovery, a separate dose-response curve was generated for each peptide, since their MS responses varied by ~5-fold (Supplementary Fig. 7). […]

[3] = system: 12ca5; test: Affinity selection from 10^8-member library against 12ca5 with exogenous competitor; details: 10 pM/member, 0.13 nmol 12ca5

SMILES | IC50 [1] [µM] | Kd [1] [µM] | recovery ([2]; 1 mg 12ca5-functionalized beads, 1 mL, 1 nM to 10 pM/peptide, 1 h 4 °C, 3 PBS washes (~6 min), normalized MS response) [%] | recovery expected based on measured dissociation rate ([2]; based on koff = 3.0 × 10^−3 s^−1 and total wash time of ~6 min) [%] | competitor concentration required to attenuate the recovery of DXXDY(A/S) peptides [3] [µM]
C[C@H](NC(=O)[C@H](Cc1ccc(O)cc1)NC(=O)[C@H](CC(=O)O)NC(=O)[C@H](CCC(=O)O)NC(=O)[C@H](Cc1ccc(O)cc1)NC(=O)[C@H](CC(=O)O)NC(=O)[C@@H](N)Cc1ccccc1)C(=O)N[C@@H](CCC(=O)O)C(=O)N[C@@H](Cc1c[nH]c2ccccc12)C(=O)N[C@@H](CCCCN)C(N)=O [FDYEDYAEWK] (H-FDYEDYAEWK-NH2) | 0.59 ± 0.19 | 0.025 ± 0.013 | 33 | 34 | –
NCC(=O)N[C@H](Cc1ccc(O)cc1)C(=O)N1CCC[C@@H]1C(=O)N[C@H](Cc1ccc(O)cc1)C(=O)N[C@H](CCC(=O)O)C(=O)N[C@H](Cc1ccc(O)cc1)C(=O)N[C@H](CC(=O)O)C(=O)N[C@H](Cc1c[nH]c2ccccc12)C(=O)N[C@H](CCC(=O)O)C(N)=O [Gypyeydwe, reference compound] (H-G[dY][dP][dY][dE][dY][dD][dW][dE]-NH2) | 62 ± 8 | 3 | – | – | 100
